The text below walks through data of US12037324B2, “Biarylmethyl heterocycles” (Université de Montréal, priority 2016, dated 2024).

Format in all cases: cell-based
One test deals with T1, AGTR1 (Homo sapiens, UniProt P30556).
T1 construct: host or cells: Pathunter CHO-K1 AGTR1 β-arrestin cell line (CHO-K1)
T1 sequence (P30556 1-359): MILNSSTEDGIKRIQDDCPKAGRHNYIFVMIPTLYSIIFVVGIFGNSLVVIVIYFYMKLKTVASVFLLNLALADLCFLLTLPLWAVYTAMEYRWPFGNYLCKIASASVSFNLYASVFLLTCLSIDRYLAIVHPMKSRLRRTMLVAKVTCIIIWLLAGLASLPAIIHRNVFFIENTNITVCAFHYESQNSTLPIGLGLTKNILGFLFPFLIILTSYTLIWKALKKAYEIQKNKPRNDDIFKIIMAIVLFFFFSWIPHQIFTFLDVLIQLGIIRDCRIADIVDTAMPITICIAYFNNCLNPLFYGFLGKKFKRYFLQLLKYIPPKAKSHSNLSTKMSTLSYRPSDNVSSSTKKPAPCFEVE
Briefly: DiscoveRx β-arrestin2 recruitment assay (enzyme complementation, Pathunter CHO-K1 AGTR1 β-arrestin cell line). The following applies: DiscoveRx β-arrestin2 recruitment. A digest of the protocol:
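CHO-K1 cells expressing AGTR1 with β-arrestin2 enzyme-complementation reporter, plated 14-16 h ahead in 1% serum medium, then exposed to compounds for 90 min at 37° C. Chemiluminescence read after 1 h detection. EC50 (agonist) or IC50 (antagonist) from 4-parameter logistic fit; activity as percentage of All maximal effect.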

Test [1] has as its target T2, hAT1R (Homo sapiens, UniProt P30556).
T2 sequence (P30556 1-359): T1 sequence (P30556 1-359)
Briefly: BRET β-arrestin2 biosensor assay, higher receptor expression (hAT1R 5 ng/well), HEK293 cells. The following applies: for EC50: High AT1R Expression.

Test [2] addresses T2, hAT1R. As to the kind of experiment: BRET Gq biosensor assay, agonist response, HEK293 cells. The following applies: section of the 42nd table directly before the BRET P63 section. As for the experimental part: BRET β-arrestin2 and Gq Activation Assays
In another aspect of the invention, association of the ATIR with signaling proteins is assessed using bioluminescence resonance energy transfer assays (Stephane Angers, Ali Salahpour et al. 2002). This technology measures the association between bioluminescent and fluorescent protein tags.
Several of the plasmid constructs used in BRET experiments were previously described. Briefly, the coding sequence of β-arrestin2 was fused to Renilla luciferase II to generate β-arrestin2-Rluc (Quoyer, Janz et al. 2013). The membrane targeting motif from K-Ras, CAAX motif (GKKKKKKSKTKCVIM), was fused to Renilla GFP to create rGFP-CAAX plasmid (Namkung Y et al., Nat Commun (2016) 7, 12178). The Renilla luciferase II was inserted in the Gaq protein to generate Gaq-Rluc (Breton, Sauvageau et al. 2010). The Gγ1 protein was tagged with GFP10 to obtain GFP-Gyl, using the same strategy described previously for GFP-Gy2 (Gales, Rebois et al. 2005). The Gaq binding domain of the p63RhoGEF protein (amino acids 295-502) was fused to Renilla luciferase II to create P63-Rluc. Finally, the hAT1R plasmid construct encoding the receptor was generated by optimizing the coding sequence of human angiotensin II receptor (GeneOptimizer from ThermoFisher), and adding an artificial cleavable signal peptide from bovine prolactin ([…]) in N-terminus of the receptor to increase cell surface expression.
Gq Biosensor Assay HEK293 cells were cultured in DMEM supplemented with Penicillin-Streptomycin and 10% fetal bovine serum. Two days before the BRET experiment, HEK293 cells were transfected with hAT1R expression plasmid (200 ng/well) as well as Gaq-Rluc (100 ng/well), Gβ1 (375 ng/well) and GFP-Gγ1 (625 ng/well), using linear polyethylenimine 25 kDa (PEI) at a PEI:DNA ratio of 3:1. Transfected cells were directly seeded in 96-well plates, at a density of 35 000 cells per well, and maintained in culture for the next 48 h.
BRET experiments were carried out subsequently using the following procedures: cells were washed once with Tyrode's buffer (137 mM NaCl, 1 mM CaCl2, 0.9 mM KCl, […], 3.6 mM NaH2PO4, 5.5 mM glucose, 12 mM NaHCO3, and 25 mM HEPES, pH 7.4) and 90 μl of Tyrode's buffer was added to each well. Cells were equilibrated in their new buffer at room temperature for at least 30 minutes. Following the equilibration period, the coelenterazine substrate was first added to the cells, 10 μl per well of a 10×solution (prolume purple coelenterazine at a final concentration of 2 μM), immediately followed by compound addition using the HP D300 digital dispenser from Tecan (10 singlicate concentrations). Cells were incubated for 5 min at room temperature and BRET readings were then collected using a Synergy Neo Multi-Mode reader from BioTek with BRET2 filters 410/515, to record agonist response. […] A second reading was collected 5 min after this second addition, using the Synergy Neo Multi-Mode reader from BioTek with BRET2 filters 410/515, to record antagonist response. The BRET signal was determined by calculating the ratio of the light emitted by GFP (515 nm) over the light emitted by the Rluc (410 nm). To analyze agonist response, BRET signal values were converted into percentage of activation using the non-stimulated control as 0% and AngII maximal response as 100%. Sigmoidal concentration-response curves were generated with those normalized values using a 4-parameter logistic equation (IDBS ActivityBase software), to determine EC50 of the different compounds. In the case of antagonist response analysis, BRET signal values were converted into percentage of inhibition using the fixed dose of AngII (corresponding to the EC50) as 0% and non-stimulated control as 100%. Sigmoidal concentration-response curves were generated with those normalized values using a 4-parameter logistic equation (IDBS ActivityBase software), to determine IC50 of the different compounds.
For orientation: In BRET a luciferase serves as donor, and the signal depends on an acceptor being close.

Broadly, the EC50 is the concentration that produces a half-maximal response. With `CCCCC(=O)N(Cc1ccc(-c2cc(-c3cc(F)cc(F)c3)ccc2-c2nn[nH]n2)cc1)C1(C(=O)O)CCCCC1` [Example 289], the concentration for a half-maximal effect (EC50) at AGTR1 came to 0.0482 µM; on hAT1R [1], 0.013 µM; on hAT1R [2], 0.546 µM. Besides, at AGTR1 (maximal response), the “DiscoveRx β-arrestin2 Ymax (%)” value worked out at 51.1%. For the same molecule, on hAT1R [1], the “BRET β-Arrestin2 High AT1R Expression Ymax (%)” value came to 85.2%.
Turning to `CCCCC(=O)N(Cc1ccc(-c2cc(-c3ccccc3)ccc2-c2nn[nH]n2)cc1)C1(C(=O)O)CCCCCC1` [Example 277], the half-maximal effective concentration (EC50) was 0.0361 µM at AGTR1, 0.0289 µM at hAT1R [1] and more than 100 µM on hAT1R [2]. Moreover, the “DiscoveRx β-arrestin2 Ymax (%)” value on AGTR1 (maximal response) is 46.0%. In addition, the “BRET β-Arrestin2 High AT1R Expression Ymax (%)” value on hAT1R [1] amounted to 79.4%.
As to `CCCCC1=NC2(CCCC2)C(=O)N1Cc1ccc(-c2cc(-c3ccccc3)ccc2-c2nn[nH]n2)cn1` [Example 452, 3-((5-(4-(2H-Tetrazol-5-yl)-[1,1′-biphenyl]-3-yl)pyridin-2-yl)methyl)-2-butyl-1,3-diazaspiro[4.4]non-1-en-4-one], at AGTR1, the “DiscoveRx β-arrestin2 Ymax (%)” value stood at 36.1% and a half-maximal effect (EC50) was put at 0.0081 µM. Besides, at hAT1R [1], the “BRET β-Arrestin2 High AT1R Expression Ymax (%)” value worked out at 84.6% and the concentration for a half-maximal effect (EC50) worked out at 0.0338 µM. Also, the concentration for a half-maximal effect (EC50) at hAT1R [2] was 0.0448 µM.
In the case of `CCCCc1ncc(C(=O)NCc2cccnn2)n1Cc1ccc(-c2cc(-c3ccccc3)ccc2-c2nn[nH]n2)cc1` [Example 355], the values for the 50% effective concentration (EC50) at AGTR1, at hAT1R [1] and at hAT1R [2] were 0.0086 µM, 0.0233 µM and more than 1 µM, respectively. Moreover, the “DiscoveRx β-arrestin2 Ymax (%)” value at AGTR1 (maximal response) is reported as 42.4%. Moreover, the “BRET β-Arrestin2 High AT1R Expression Ymax (%)” value at hAT1R [1] was 92.5%.
`CCCCC(=O)N(Cc1ccc(-c2cc(-c3ccc4ncccc4c3)ccc2-c2nn[nH]n2)cc1)[C@H](C(=O)O)C(C)C` [Example 441]: on AGTR1, the “DiscoveRx β-arrestin2 Ymax (%)” value came out at 39.3% and the concentration for a half-maximal effect (EC50) is 0.101 µM. On hAT1R [1], the “BRET β-Arrestin2 High AT1R Expression Ymax (%)” value amounted to 64.3% and the EC50 worked out at 0.057 µM. For the same molecule, on hAT1R [2], the EC50 is more than 100 µM.
Take `CCCCC(=O)N(Cc1ccc(-c2cc(-c3ccccc3)ccc2-c2nn[nH]n2)cc1)C1(C(=O)O)CCOCC1` [Example 276]: the concentration for a half-maximal effect (EC50) at AGTR1 was 0.05 µM; at hAT1R [1], 0.0779 µM; at hAT1R [2], 0.401 µM. In addition, the “DiscoveRx β-arrestin2 Ymax (%)” value on AGTR1 (maximal response) is reported as 50.9%. The “BRET β-Arrestin2 High AT1R Expression Ymax (%)” value on hAT1R [1] is recorded as 73.6%.
The matching figures for `CCCCc1ncc(C(=O)NCCO)n1Cc1ccc(-c2cc(-c3ccccc3)ccc2-c2nn[nH]n2)cc1` [Example 348]: 0.0073 µM, 0.0343 µM, 0.0892 µM, 50.9% and 85.4%.
In the same order, the values of `CCOc1nc2cccc(C(=O)O)c2n1Cc1ccc(-c2cc(-c3ccc(C(=O)N(C)C)cc3)ccc2-c2noc(=O)[nH]2)cc1` [Example 321] are 0.0568 µM, 0.108 µM, 0.0479 µM, 83.4% and 86.7%.
For `CCCCC(=O)N(Cc1ccc(-c2cc(-c3ccccc3)ccc2-c2nn[nH]n2)cc1)C1(C(=O)O)CCCC1` [Example 271], the concentration giving a half-maximal response (EC50) on AGTR1 was determined as 0.384 µM; on hAT1R [1], 0.561 µM; on hAT1R [2], 0.59 µM. Besides, on AGTR1 (maximal response), the “DiscoveRx β-arrestin2 Ymax (%)” value amounted to 45.5%. The “BRET β-Arrestin2 High AT1R Expression Ymax (%)” value on hAT1R [1] is on record as 80.3%.
Regarding `CCCCC(=O)N(Cc1ccc(-c2cc(-c3cc(F)cc(F)c3)ccc2-c2nn[nH]n2)cc1)[C@H](C(=O)O)C(C)C` [Example 438, (S)-2-(N-((3″,5″-Difluoro-6′-(2H-tetrazol-5-yl)-[1,1′:3′,1″-terphenyl]-4-yl)methyl)pentanamido)-3-methylbutanoic acid], at AGTR1, the “DiscoveRx β-arrestin2 Ymax (%)” value came to 41.7% and the concentration for a half-maximal effect (EC50) was determined as 0.0204 µM. In addition, on hAT1R [1], the “BRET β-Arrestin2 High AT1R Expression Ymax (%)” value is listed as 74.6% and the half-maximal effective concentration (EC50) turned out to be 0.0348 µM. Moreover, the EC50 on hAT1R [2] was found to be 0.718 µM.
`CCCCc1ncc(C(=O)NCC2CC2)n1Cc1ccc(-c2cc(-c3ccccc3)ccc2-c2nn[nH]n2)cc1` [Example 365]: the results for the EC50 on AGTR1, on hAT1R [1] and on hAT1R [2] were 0.0462 µM, 0.0359 µM and 0.0408 µM, respectively. In addition, the “DiscoveRx β-arrestin2 Ymax (%)” value at AGTR1 (maximal response) was found to be 39.7%. For the same molecule, on hAT1R [1], the “BRET β-Arrestin2 High AT1R Expression Ymax (%)” value worked out at 82.7%.
`CCOc1nc2cccc(C(=O)O)c2n1Cc1ccc(-c2cc(N3CC(C)(C)c4ccccc43)ccc2C(=O)O)cc1` [Example 319, 1-((2′-carboxy-5′-(3,3-dimethylindolin-1-yl)-[1,1′-biphenyl]-4-yl)methyl)-2-ethoxy-1H-benzo[d]imidazole-7-carboxylic acid]: the values for the EC50 at AGTR1 and on hAT1R [2] were 0.0711 µM and 0.787 µM, respectively. For the same molecule, the “DiscoveRx β-arrestin2 Ymax (%)” value on AGTR1 (maximal response) worked out at 49.0%.
The matching figures for `CCCCc1nc(Cl)c(C(=O)OCc2oc(=O)oc2C)n1Cc1ccc(-c2cc(-c3ccccc3)ccc2-c2nn[nH]n2)cc1` [Example 411]: 0.0309 µM, 0.017 µM and 56.4%.
On to `CCCCc1nc(Cl)c(C(=O)O)n1Cc1ccc(-c2cc(-n3ccc4ccccc43)ccc2-c2noc(=O)[nH]2)cc1` [Example 408], for which the EC50 on AGTR1 is 0.0233 µM; at hAT1R [2], more than 100 µM. At AGTR1 (maximal response), the “DiscoveRx β-arrestin2 Ymax (%)” value was 32.5%.
As to `CCOc1nc2cccc(C(=O)O)c2n1Cc1ccc(-c2cc(-c3cnc(OC)c(C)c3)ccc2-c2nn[nH]n2)cc1` [Example 328, 2-ethoxy-1-((5′-(6-methoxy-5-methylpyridin-3-yl)-2′-(2H-tetrazol-5-yl)-[1,1′-biphenyl]-4-yl)methyl)-1H-benzo[d]imidazole-7-carboxylic acid], the results for the EC50 at AGTR1 and on hAT1R [2] were 0.802 µM and 2.62 µM, respectively. Further, the “DiscoveRx β-arrestin2 Ymax (%)” value on AGTR1 (maximal response) was 51.8%.
With `CCCCc1nc(Cl)c(C(=O)O)n1Cc1ccc(-c2cc(-n3ccc4ccccc43)ccc2-c2nn[nH]n2)cc1` [Example 417], the concentration for a half-maximal effect (EC50) on AGTR1 is 0.0059 µM; at hAT1R [2], more than 100 µM. Moreover, the “DiscoveRx β-arrestin2 Ymax (%)” value at AGTR1 (maximal response) is on record as 39.6%.
For `CCCCc1nc(Cl)c(C(=O)O)n1Cc1ccc(-c2cc(N3CCC[C@H](C)C3)ccc2-c2noc(=O)[nH]2)cc1` [Example 407, (S)-2-butyl-4-chloro-1-((5′-(3-methylpiperidin-1-yl)-2′-(5-oxo-4,5-dihydro-1,2,4-oxadiazol-3-yl)-[1,1′-biphenyl]-4-yl)methyl)-1H-imidazole-5-carboxylic acid], the EC50 at AGTR1 stood at 0.173 µM; at hAT1R [2], 16.6 µM. The “DiscoveRx β-arrestin2 Ymax (%)” value at AGTR1 (maximal response) was determined as 24.6%.
